From US20190185518A9, “WARHEAD-CONTAINING PEPTIDOMIMETIC MACROCYCLES AS MODULATORS OF BFL-1” (AILERON Therapeutics, Inc., priority 2017, published 2019)
Like-named read-outs stand apart in the source and are kept apart here. Blank lines part the entries; values can stand above or below the compound they belong to. Positions of bridges follow the written chain, without caps; N, C: chain ends. Non-standard residues stand in square brackets, D forms with d. Residues, ends and D or L forms follow the SMILES beside them. Phe(4-F) = N[C@@H](Cc1ccc(F)cc1)C(=O)O; R8 = C=CCCCCCC[C@@](C)(N)C(=O)O; hLeu = CC(C)CC[C@H](N)C(=O)O; S5 = C=CCCC[C@](C)(N)C(=O)O; Aib = CC(C)(N)C(=O)O

Tests used:
[1] = test system: MCL-1 driven Raji cells; assay: cells; conditions: Homo sapiens, read-out: EC50 (anti-proliferative effects)
[2] = test system: ABT-199 resistant Burkitt lymphoma Raji cells; assay: WST-1 anti-proliferative activity in Raji cells; format: cell-based, Human; conditions: for IC50: TABLE 9, Raji cell proliferation
Description: WST-1 is a cell proliferation reagent that is used in colorimetric assays designed to measure the relative proliferation rates of cells in culture. The assay is based on the conversion of the tetrazolium salt WST-1 into a colored dye by mitochondrial dehydrogenase enzymes. The soluble salt is released into the media. Within a given time period, the reaction produces a color change that is directly proportional to the amount of mitochondrial dehydrogenase in a culture. The WST-1 assay measures the net metabolic activity of cells.

[3] = biological target: T1, Mcl-1 (Homo sapiens, UniProt Q07820); conditions: cited from earlier work
[4] = biological target: T2, MCL-1/BAK protein-protein interaction (Homo sapiens, UniProt Q07820); assay: MCL-1 displacement study (BAK FRET signal); format: cell-based
T2 construct: host or cells: Raji
Description: BIM peptidomimetic macrocycles were tested for displacement of MCL-1 from a BAK fluorescence resonance energy transfer (FRET) peptide.
FIG. 19 compares normalized FRET signals of samples to determine the samples' effects in disrupting MCL-1/BAK protein-protein interactions.

[5] = test system: Mcl-1, Bcl-xL, Bcl-2; conditions: TABLE 8; † reported in the literature; cited from earlier work
[6] = test system: Mcl-1, Bcl-xL, Bcl-2; assay: BCL-2 family selectivity profile; format: binding; conditions: for Profile: TABLE 8
Description: The binding spectrum of stapled BIM BH3 peptides were tuned for BCL-2 family selectivity. […] ABT-199 is venetoclax, and † represents values reported in the literature.

[7] = test system: A375-P melanoma cells; assay: Cell viability (CellTiter-Glo), A375-P; format: cell-based; conditions: 40 μM; for % cell viability: A375-P, 5% serum
Description: (§1) Cancer cells were cultured using a standard culture medium containing 10% fetal bovine serum (FBS) and penicillin-streptomycin (A375P: DMEM; SK-MEL-2, SK-MEL-28: EMEM). Cells were plated in 96-well plates (5×10^3 cells per well) and, after overnight incubation, treated with the indicated concentrations of Stapled Peptides in the corresponding medium supplemented with 5% FBS for the indicated durations. Cell viability and caspase-3/7 activation was measured using CellTiter-Glo and Caspase-Glo 3/7 chemiluminescence reagents (Promega), respectively. Luminescence was detected by a microplate reader (Spectramax M5, Molecular Devices).

[8] = test system: SK-MEL-2 melanoma cells; assay: Cell viability (CellTiter-Glo), SK-MEL-2; format: cell-based; conditions: 40 μM; for % cell viability: SK-MEL-2, 5% serum
Description: as §1

[9] = test system: SK-MEL-28 melanoma cells; assay: Caspase-3/7 activation (Caspase-Glo 3/7), SK-MEL-28; format: cell-based
Description: as §1

[10] = test system: SK-MEL-28 melanoma cells; assay: Cell viability (CellTiter-Glo), SK-MEL-28; format: cell-based; conditions: 40 μM; for % cell viability: SK-MEL-28, 5% serum
Description: as §1

[11] = test system: A375-P melanoma cells; assay: Caspase-3/7 activation (Caspase-Glo 3/7), A375-P; format: cell-based
Description: as §1

[12] = test system: SK-MEL-2 melanoma cells; assay: Caspase-3/7 activation (Caspase-Glo 3/7), SK-MEL-2; format: cell-based
Description: as §1

[13] = biological target: T1, Mcl-1; assay: Ki determination for Mcl-1 (BCL-2 family binding spectrum)
Procedure, shortened: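 Binding to Mcl-1 was measured as displacement of a fluorescein-labelled macrocyclic peptidomimetic, read by fluorescence polarization. Constants were fitted by nonlinear regression.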

[14] = test system: BAX-BAK^−/− double knock outs (DKO) MEF cells; assay: On-mechanism cytotoxic activity, BAX-BAK-/- double knock out MEF cells; format: cell-based; conditions: 5% serum
[15] = test system: BAX-BAK^wt/wt MEF cells; assay: On-mechanism cytotoxic activity, BAX-BAK wt/wt MEF cells; format: cell-based; conditions: 5% serum
[16] = biological target: Bcl-xL (Homo sapiens, UniProt Q07817); assay: Ki determination for Bcl-xL (BCL-2 family binding spectrum)
Procedure, shortened: (§2)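 Competitive fluorescence polarization: compounds (1 nM–1 mM) with 25 nM fluoresceinated peptidomimetic macrocycle and 50 nM protein in 140 mM NaCl, 50 mM Tris-HCl pH 7.4, 30 min at room temperature. Constants from nonlinear regression.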

[17] = test system: released LDH (damaged cells); assay: Lactate dehydrogenase cytotoxicity colorimetric assay; format: cell-based; conditions: 5% serum
Description: When cell membranes are compromised or damaged, lactate dehydrogenase (LDH), a soluble yet stable enzyme found inside every living cell, is released into the surrounding extracellular space. The presence of LDH in the culture medium can be used as a cell death marker. The relative amounts of live and dead cells within the medium can then be quantified by measuring the amount of released LDH using a colorimetric or fluorimetric LDH cytotoxicity assay. When using an LDH colorimetric assay, the amount of LDH released in the surrounding environment is measured with an enzymatic reaction that converts iodonitrotetrazolium (INT) into red-colored formazan. When LDH is present in the cell culture, the LDH reduces NAD^+ to NADH and H^+ through the oxidation of lactate to pyruvate. Afterward, the catalyst (diaphorase) then transfers H/H^+ from NADH^+H^+ to the trazolium salt INT to form the red-colored formazan salt. The amount of color produced is measured at 490 nm by standard spectroscopy, and is proportional to the amount of damaged cells in the culture.

[18] = test system: MCL-1 driven Raji cells
[19] = biological target: Bcl-2 (Homo sapiens, UniProt P10415); assay: Ki determination for Bcl-2 (BCL-2 family binding spectrum); conditions: read-out: Ki BCL-2
Procedure, shortened: as §2

[20] = test system: Human Raji cells; format: cell-based; conditions: Raji Cell Viability, 48 h, 5% serum
Description: BIM peptidomimetic macrocycles were tested for cell killing at various concentrations. Human Raji cells were treated with increasing doses of peptidomimetic macrocycles corresponding to Aileron peptide A (FIGS. 1 and 2), Aileron peptide B (FIGS. 1-3), and Aileron peptide C (FIGS. 3 and 4). An […] was calculated for each dose of the peptidomimetic macrocycle from a non-linear fit of response vs dose (GraphPad Prism).

T1 sequence (Q07820 whole entry, species assumed): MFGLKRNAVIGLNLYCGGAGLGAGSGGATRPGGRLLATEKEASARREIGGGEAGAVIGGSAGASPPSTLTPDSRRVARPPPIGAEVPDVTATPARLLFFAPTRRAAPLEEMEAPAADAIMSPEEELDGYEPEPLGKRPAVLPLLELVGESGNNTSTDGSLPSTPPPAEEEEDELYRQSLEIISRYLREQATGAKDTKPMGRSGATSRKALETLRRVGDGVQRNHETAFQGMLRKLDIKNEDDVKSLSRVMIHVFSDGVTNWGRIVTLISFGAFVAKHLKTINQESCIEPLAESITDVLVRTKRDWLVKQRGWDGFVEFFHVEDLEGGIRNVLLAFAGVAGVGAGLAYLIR
Sequence of Bcl-xL (Q07817 whole entry, species assumed): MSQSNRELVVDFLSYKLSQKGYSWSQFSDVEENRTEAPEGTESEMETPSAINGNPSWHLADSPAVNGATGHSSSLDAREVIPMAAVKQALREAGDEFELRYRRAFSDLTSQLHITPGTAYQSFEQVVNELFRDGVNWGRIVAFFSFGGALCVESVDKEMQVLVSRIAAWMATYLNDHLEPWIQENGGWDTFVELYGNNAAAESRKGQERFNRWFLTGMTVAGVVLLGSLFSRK
T2 sequence (Q07820 whole entry): as the sequence (Q07820 whole entry, species assumed) above
Sequence of Bcl-2 (P10415 whole entry, species assumed): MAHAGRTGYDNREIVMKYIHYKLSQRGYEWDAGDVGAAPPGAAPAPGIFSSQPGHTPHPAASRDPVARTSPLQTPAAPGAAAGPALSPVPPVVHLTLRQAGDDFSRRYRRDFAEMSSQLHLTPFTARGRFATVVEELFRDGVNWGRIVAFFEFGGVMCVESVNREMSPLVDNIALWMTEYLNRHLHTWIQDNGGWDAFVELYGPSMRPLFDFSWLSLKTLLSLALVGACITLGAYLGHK

Compound: CC[C@H](C)[C@H](NC(C)=O)C(=O)N[C@@H](Cc1c[nH]c2ccccc12)C(=O)N[C@H](C(=O)N[C@@H](C)C(=O)N[C@@H](CCC(N)=O)C(=O)N[C@@H](CCC(=O)O)C(=O)N[C@@H](CC(C)C)C(=O)N[C@@H](CCCNC(=N)N)C(=O)N[C@@]1(C)CCCC=CCCC[C@@](C)(C(=O)N[C@@H](Cc2ccccc2)C(=O)N[C@@H](CC(N)=O)C(=O)N[C@@H](C)C(=O)N[C@@H](Cc2ccc(O)cc2)C(=O)N[C@@H](Cc2ccc(O)cc2)C(=O)N[C@@H](C)C(=O)N[C@@H](CCCNC(=N)N)C(=O)N[C@@H](CCCNC(=N)N)C(N)=O)NC(=O)[C@H](CC(=O)O)NC(=O)CNC(=O)[C@H]([C@@H](C)CC)NC1=O)[C@@H](C)CC [BIM SAHBA1]
- proliferation ([7]; A375-P cells): neither BIM SAHBA1 nor Aileron peptide 1 affected proliferation
- % cell viability [7]: had no effect on % viability
- % cell viability [8]: had no effect on % viability
- proliferation ([8]; SK-MEL-2 cells): neither BIM SAHBA1 nor Aileron peptide 1 affected proliferation
- apoptosis induction ([9]; SK-MEL-28 cells, 40 μM): neither BIM SAHBA1 nor Aileron peptide 1 affected proliferation and apoptosis induction
- IC50 [2]: 23.7 µM
- % cell viability [10]: had no effect on % viability
- proliferation ([10]; SK-MEL-28 cells): neither BIM SAHBA1 nor Aileron peptide 1 affected proliferation
- apoptosis induction ([11]; A375-P cells, 40 μM): neither BIM SAHBA1 nor Aileron peptide 1 affected proliferation and apoptosis induction
- Profile [6]: Pan-selective
- apoptosis induction ([12]; SK-MEL-2 cells, 40 μM): neither BIM SAHBA1 nor Aileron peptide 1 affected proliferation and apoptosis induction

Compound: CC[C@H](C)[C@H](NC(=O)[C@H](Cc1c[nH]c2ccccc12)NC(=O)[C@H](CCCNC(=N)N)NC(C)=O)C(=O)N[C@@H](C)C(=O)N[C@@H](CCC(N)=O)C(=O)N[C@@H](C)C(=O)N[C@@H](CC(C)C)C(=O)N[C@@H](CCCNC(=N)N)C(=O)N[C@@]1(C)CCCC=CCCC[C@@](C)(C(=O)N[C@@H](CC(C)C)C(=O)N[C@@H](CC(N)=O)C(=O)NC(C)(C)C(=O)N[C@@H](Cc2ccccc2)C(=O)N[C@@H](Cc2ccc(O)cc2)C(=O)N[C@@H](C)C(=O)N[C@@H](Cc2c[nH]cn2)C(=O)N[C@@H](Cc2c[nH]cn2)C(N)=O)NC(=O)[C@H](CC(=O)O)NC(=O)CNC(=O)[C@H]([C@@H](C)CC)NC1=O [Peptide #14] (Ac-RWIAQALR[S5]IGD[S5]LN[Aib]FYAHH-NH2; staple 9-13)
- disrupting the MCL-1/BAK protein-protein interaction (normalized FRET signal) ([4]; 10 μM and 20 μM): highly effective
- Ki ([13]; TABLE 7, read-out: MCL-1 Ki): 0.011 µM
- Ki of MCL-1 compared with Ki of BCL-xL or BCL-2 ([6]; TABLE 7 assay): drastically lower
- Profile [6]: Mcl-1 selective

Compound: CC[C@H](C)[C@H](NC(C)=O)C(=O)N[C@@H](Cc1c[nH]c2ccccc12)C(=O)N[C@H](C(=O)N[C@@H](C)C(=O)N[C@@H](CCC(N)=O)C(=O)N[C@@H](C)C(=O)N[C@@H](CC(C)C)C(=O)N[C@@H](CCCNC(=N)N)C(=O)N[C@]1(C)CCCCCCC=CCCC[C@@](C)(C(=O)N[C@@H](Cc2ccc(O)cc2)C(=O)N[C@@H](Cc2ccc(F)cc2)C(=O)N[C@@H](C)C(N)=O)NC(=O)[C@H](CC(N)=O)NC(=O)[C@H](Cc2ccccc2)NC(=O)[C@H](C)NC(=O)[C@H](CC(=O)O)NC(=O)CNC(=O)[C@H](CCC(C)C)NC1=O)[C@@H](C)CC [Peptide #16] (Ac-IWIAQALR[R8][hLeu]GDAFN[S5]Y[Phe(4-F)]A-NH2; staple 9-16)
- on-mechanism cytotoxic activity [14]: did not exhibit on-mechanism cytotoxic activity
- % cell viability [7]: decreased the % viability of the cells
- on-mechanism cytotoxic activity [15]: exhibited on-mechanism cytotoxic activity
- % cell viability [8]: decreased the % viability of the cells
- Ki ([16]; TABLE 8, read-out: Bcl-xL Ki): 0.013 µM
- off-target cytotoxicity in the LDH assay [17]: No off-target cytotoxicity was observed
- Relative caspase-3/7 activation ([9]; SK-MEL-28, control BIM SAHBA1 40 μM, 5% serum): higher levels of caspase-3/7 activation than the BIM SAHBA1 control
- potency relative to BIM SAHBA1 ([2]; Raji cell line): ten times more potent than BIM SAHBA1
- IC50 [2]: 2 µM
- % cell viability [10]: decreased the % viability of the cells
- Relative caspase-3/7 activation ([11]; A375-P, control BIM SAHBA1 40 μM, 5% serum): higher levels of caspase-3/7 activation than the BIM SAHBA1 control
- Ki ([13]; TABLE 8, read-out: Mcl-1 Ki): 0.027 µM
- EC50 [18]: 1.2 to 1.6 µM
- anti-proliferative effects in combination ([18]; Raji cells, combined with fixed doses of the other agent (peptide #16 0.95-3.8 μM or ABT-199 1.9-3.8 μM)): enhanced
- Raji cell proliferation (fraction of control) ([18]; increasing doses, combination study): decreased
- Profile [6]: Pan-selective
- Relative caspase-3/7 activation ([12]; SK-MEL-2, control BIM SAHBA1 40 μM, 5% serum): higher levels of caspase-3/7 activation than the BIM SAHBA1 control

Compound: CC[C@H](C)[C@H](NC(C)=O)C(=O)N[C@@H](Cc1c[nH]c2ccccc12)C(=O)N[C@H](C(=O)N[C@@H](C)C(=O)N[C@@H](CCC(N)=O)C(=O)N[C@@H](C)C(=O)N[C@@H](CC(C)C)C(=O)N[C@@H](CCCNC(=N)N)C(=O)N[C@]1(C)CCCCCCC=CCCC[C@@](C)(C(=O)N[C@@H](Cc2ccc(O)cc2)C(=O)N[C@@H](Cc2ccc(O)cc2)C(=O)N[C@@H](C)C(N)=O)NC(=O)[C@H](CC(N)=O)NC(=O)[C@H](Cc2ccccc2)NC(=O)[C@H](CCC(=O)O)NC(=O)[C@H](CC(=O)O)NC(=O)CNC(=O)[C@H]([C@@H](C)CC)NC1=O)[C@@H](C)CC [compound 1649] (Ac-IWIAQALR[R8]IGDEFN[S5]YYA-NH2; staple 9-16)
- Ki [19]: 0.0032 µM
- EC50 [20]: > 40 µM
- Ki ([16]; read-out: Ki BCL-XL): 0.0014 µM
- Ki ([13]; read-out: Ki MCL-1): 0.0018 µM

Second part, led by results:

- EC50 [1]: 3.7 to 4.9 µM
- IC50 ([2]; Homo sapiens): 3.1 µM
Compound: CC1(C)CCC(CN2CCN(c3ccc(C(=O)NS(=O)(=O)c4ccc(NCC5CCOCC5)c([N+](=O)[O-])c4)c(Oc4cnc5[nH]ccc5c4)c3)CC2)=C(c2ccc(Cl)cc2)C1 [ABT-199, venetoclax]
- Ki ([3]; TABLE 6, † values reported in the literature): > 0.444 µM
- Ki ([3]; TABLE 8, † reported in the literature): > 0.444 µM

- disrupting the MCL-1/BAK protein-protein interaction (normalized FRET signal) ([4]; 5 μM or 10 μM): did not disrupt
Compound: CC1(C)CCC(c2ccc(Cl)cc2)=C(CN2CCN(c3ccc(C(=O)NS(=O)(=O)c4ccc(N[C@H](CCN5CCOCC5)CSc5ccccc5)c(S(=O)(=O)C(F)(F)F)c4)cc3)CC2)C1 [ABT-263, navitoclax, reference compound]
- Profile [5]: Bcl-xL/Bcl-2 selective
- Profile [6]: Bcl-xL/Bcl-2 selective
